Laboratory results taken from patent US12291553B2, “Non-opioid anti-pain medication” (priority 2020, dated 2025).
Like-named read-outs stand apart in the source and are kept apart here. Residues, ends and D or L forms follow the SMILES beside them. *: point of attachment. Cbz = O=C(OCc1ccccc1)*; OtBu = CC(C)(C)O*

Assays:
[1] = biological target: human cardiac ERG channel (hERG) (Homo sapiens, UniProt Q12809); test: hERG channel activity
Description: (§1) FIG. 12. In vitro studies of PW164 plasma and blood metabolic stability in rodent and preclinical human models. Intestinal absorption using the P-glycoprotein (P-gp) inhibition (IC50) assay as well as activity against the human cardiac ERG channel (hERG) as well as liver toxicity tests against various isoforms of the cytochrome P450 were conducted. […] This might be favorable for peripheral therapeutics with the advantage of no brain-associated side toxicity effects.

[2] = test system: capsaicin-induced mechanical hypersensitivity; test: Capsaicin-induced pain model, von Frey mechanical hypersensitivity; assay type: in vivo, mice
HEK293 cells = assay type: cell-based
Text: (§2) FIG. 3. PW164 inhibits FGF13-1b but not FGF13-1a binding to the Nav1.6 C-tail. […] Data are normalized with respect to 0.5% DMSO (vehicle). (C) PW164 has no effect on full length luciferase in transiently transfected HEK293 cells. (D) PW164 is not toxic toward HEK293 cells using the LDH cytotoxicity assay.

[3] = test system: normal mechanical sensitivity; conditions: mouse, in vivo
Description: (§4) Schemes illustrate the experimental design testing the effect of local and intrathecal PW164 on normal mechanical sensitivity (left) and capsaicin-induced mechanical hypersensitivity (right), respectively. […] Drugs were given at the indicated concentrations in a final injected volume of 3 ul (A) or 5 ul (B); in panel B, drugs were injected 30 min after Cap injection.
(§5) In animals, hypersensitivity is manifested as increased withdrawals from von Frey filament stimulations of the injection site (FIG. 7).

[4] = biological target: T1, FGF13-1b:Nav1.6 C-tail complex (Homo sapiens, UniProt Q9UQD0); test: Split-luciferase complementation assay (LCA), FGF13-1b:Nav1.6 C-tail complex; assay type: cell-based; conditions: LCA dose response, normalized to 0.5% DMSO; read-out: IC50, prevention of FGF13:Nav1.6 complex assembly
T1 construct: luciferase fragment (split-luciferase half); expressed in transfected cells
T1 sequence (Q9UQD0 1763-1980 limits assumed, one chain of several): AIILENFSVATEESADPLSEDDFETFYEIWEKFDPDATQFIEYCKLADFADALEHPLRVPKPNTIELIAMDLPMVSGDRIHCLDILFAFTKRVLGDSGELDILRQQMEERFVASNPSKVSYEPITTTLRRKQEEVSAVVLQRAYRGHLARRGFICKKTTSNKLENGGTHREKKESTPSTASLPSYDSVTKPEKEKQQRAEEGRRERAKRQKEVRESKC
Description: In-cell reconstitution of FGF13: Nav1.6 complexes using the split-luciferase assay. […] B. Luminescence-based complementation assay (LCA) of the FGF13-1a:Nav1.6 (solid dots) and FGF13-1b:Nav1.6 C-tail complex (open dots); control conditions are depicted in black; corresponding dark red dots refer to LCA complexes in the presence of the tyrosine kinase inhibitor MNS used as negative control.

Whole blood stability = assay type: in vitro ADME
Description: as §1

FGF13-1b:Nav1.6 channel = biological target: T2, FGF13-1b:Nav1.6 channel (Homo sapiens, UniProt Q9UQD0); test: Patch-clamp, steady-state inactivation in HEK-Nav1.6 cells expressing FGF13-1b; assay type: cell-based
T2 construct: expressed in transfected cells; host or cells: HEK-Nav1.6 cells
T2 sequence (Q9UQD0 whole entry): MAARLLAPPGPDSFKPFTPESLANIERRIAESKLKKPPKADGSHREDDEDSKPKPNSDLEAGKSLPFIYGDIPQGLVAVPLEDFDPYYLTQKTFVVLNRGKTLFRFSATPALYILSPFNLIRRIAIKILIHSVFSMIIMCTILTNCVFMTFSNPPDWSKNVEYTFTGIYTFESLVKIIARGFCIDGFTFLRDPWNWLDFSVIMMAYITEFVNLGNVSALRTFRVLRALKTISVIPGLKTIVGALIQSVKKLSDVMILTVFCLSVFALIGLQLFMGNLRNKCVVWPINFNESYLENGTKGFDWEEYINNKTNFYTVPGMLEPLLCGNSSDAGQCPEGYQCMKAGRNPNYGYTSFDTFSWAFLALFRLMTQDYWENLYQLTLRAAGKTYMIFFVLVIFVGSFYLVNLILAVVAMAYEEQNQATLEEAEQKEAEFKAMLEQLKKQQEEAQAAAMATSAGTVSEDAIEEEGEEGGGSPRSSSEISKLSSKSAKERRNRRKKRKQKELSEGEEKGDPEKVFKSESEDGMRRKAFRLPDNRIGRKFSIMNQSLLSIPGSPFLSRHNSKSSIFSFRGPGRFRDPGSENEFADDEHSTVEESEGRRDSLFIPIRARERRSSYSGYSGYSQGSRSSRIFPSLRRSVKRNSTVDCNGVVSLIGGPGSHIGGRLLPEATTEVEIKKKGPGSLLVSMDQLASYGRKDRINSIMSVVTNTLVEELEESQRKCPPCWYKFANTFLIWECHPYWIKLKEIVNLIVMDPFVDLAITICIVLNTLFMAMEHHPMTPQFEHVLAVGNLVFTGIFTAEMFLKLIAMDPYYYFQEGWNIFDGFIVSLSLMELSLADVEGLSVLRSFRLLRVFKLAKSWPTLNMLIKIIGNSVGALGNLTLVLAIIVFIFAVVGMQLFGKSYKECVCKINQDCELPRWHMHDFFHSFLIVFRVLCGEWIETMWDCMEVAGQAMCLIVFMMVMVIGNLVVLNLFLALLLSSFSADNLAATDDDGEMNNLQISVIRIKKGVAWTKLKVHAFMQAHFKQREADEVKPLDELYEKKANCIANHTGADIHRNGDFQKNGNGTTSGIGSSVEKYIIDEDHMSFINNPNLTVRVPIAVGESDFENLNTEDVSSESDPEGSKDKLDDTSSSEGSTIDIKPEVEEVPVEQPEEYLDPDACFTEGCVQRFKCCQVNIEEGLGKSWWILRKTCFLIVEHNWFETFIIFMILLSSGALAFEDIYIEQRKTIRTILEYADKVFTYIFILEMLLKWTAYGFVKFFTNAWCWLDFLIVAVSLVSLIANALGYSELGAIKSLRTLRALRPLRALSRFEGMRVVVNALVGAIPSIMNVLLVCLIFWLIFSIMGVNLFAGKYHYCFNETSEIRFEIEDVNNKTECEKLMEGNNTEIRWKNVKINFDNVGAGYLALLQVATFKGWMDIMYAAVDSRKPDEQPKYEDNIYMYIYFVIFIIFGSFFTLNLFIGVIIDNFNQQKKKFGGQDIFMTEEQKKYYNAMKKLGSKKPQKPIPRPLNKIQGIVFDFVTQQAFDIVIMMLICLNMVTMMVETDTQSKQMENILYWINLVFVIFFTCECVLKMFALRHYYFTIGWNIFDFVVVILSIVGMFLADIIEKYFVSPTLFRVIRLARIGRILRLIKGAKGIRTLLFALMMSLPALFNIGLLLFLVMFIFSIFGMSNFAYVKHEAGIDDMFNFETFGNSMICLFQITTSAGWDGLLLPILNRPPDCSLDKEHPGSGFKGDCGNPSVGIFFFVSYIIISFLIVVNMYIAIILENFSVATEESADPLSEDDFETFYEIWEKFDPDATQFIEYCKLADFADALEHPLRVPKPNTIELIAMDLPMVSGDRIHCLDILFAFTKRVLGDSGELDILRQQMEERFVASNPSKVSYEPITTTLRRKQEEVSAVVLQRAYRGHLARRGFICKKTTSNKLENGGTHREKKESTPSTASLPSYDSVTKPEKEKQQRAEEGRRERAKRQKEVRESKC
Description: FIG. 6. […] HEK-Nav1.6 cells were transiently expressing GFP, FGF13-1b-GFP or FGF13-1a-GFP in the presence of DMSO (blue, red and dark red) 50 μM PW164 (black, green, dark green) A, Normalized current as a function of voltage (voltage dependence of steady-state inactivation) with Boltzmann fitting B Bar graph represents V1/2 of steady state inactivation. C. Normalized conductance (G/Gmax) as a function of voltage (voltage dependence of activation) with Boltzmann fitting. D. Bar graph represents V1/2 of activation. Data are represented as mean±SEM; n=4-8 cells per group. **p<0.01; One-WAY ANOVA, post-hoc Bonferroni.
(§3) Based on the success of other PPI regulators targeting ion channels we used the same rationale of selecting compounds that could act as a FGF13 isoform specific blocking FGF13-1b isoform effects mimicking FGF13-1a and select PW164 for functional assays. We used patch-clamp electrophysiology and begun functional validation of the lead compound using a panel of biophysical protocols targeting Nav channels (FIG. 5, 6).

Nav1.6 = biological target: T3, Nav1.6 (Homo sapiens, UniProt Q9UQD0); test: Patch-clamp, Na+ transient currents in HEK-Nav1.6 cells; assay type: cell-based; conditions: 50 μM
T3 construct: expressed in transfected cells; host or cells: HEK-Nav1.6 cells
T3 sequence (Q9UQD0 whole entry): as above
Description: FIG. 5. […] A. Representative traces of Na+ transient currents (INa+) recorded from HEK-Nav1.6 cells transiently expressing the indicated constructs in response to depolarizing voltage steps in the presence of 50 μM PW164 or DMSO. B. Current-voltage relationship (I-V) derived from A. C. Summary bar graphs derived from A,B. Data are represented as mean±SEM; n=4-8 cells per group. *p<0.05; One-WAY ANOVA, post-hoc Bonferroni.
as §3

[5] = test system: mechanical hypersensitivity at the surgical wound; test: Plantar incision model of post-operative pain; assay type: in vivo, mice; conditions: administered to the wound, 3 μL
Text: FIG. 10. […] After plantar incision, mice develop profound mechanical hypersensitivity to LVF at the surgical wound (scheme).

[6] = DMPK profile, oral and intravenous dosing; assay type: in vivo; conditions: oral 20 mg/kg, mouse
Description: Relevant parameters such as half-time (t1/2), maximal concentration (Cmax), area under the curve (AUC), apparent volume of distribution at steady state (Vss), clearance (CL) and bioavailability (% F) were calculated in a mouse model.
FGF13-1a:Nav1.6 = biological target: T4, FGF13-1a:Nav1.6 (Homo sapiens, UniProt Q9UQD0); test: Split-luciferase complementation assay (LCA), FGF13-1a:Nav1.6 complex; assay type: cell-based; conditions: LCA dose response, normalized to 0.5% DMSO
T4 construct: luciferase fragment (split-luciferase half); expressed in transfected cells
T4 sequence (Q9UQD0 1763-1980 limits assumed): as the sequence (Q9UQD0 1763-1980 limits assumed, one chain of several) above
Text: FIG. 2. In-cell reconstitution of FGF13: Nav1.6 complexes using the split-luciferase assay. A. Principle of split-luciferase assay. B. Luminescence-based complementation assay (LCA) of the FGF13-1a:Nav1.6 (solid dots) and FGF13-1b:Nav1.6 C-tail complex (open dots); control conditions are depicted in black; corresponding dark red dots refer to LCA complexes in the presence of the tyrosine kinase inhibitor MNS used as negative control. C,D. Summary bar graphs depicting assay robustness with respective Z′ score calculations for each LCA complex.
as §2

[7] = Plasma metabolic stability; assay type: in vitro ADME
Description: as §1

cytochrome P450 = test: Cytochrome P450 isoform tests; assay type: in vitro ADME; conditions: various isoforms
Description: as §1

full length luciferase = biological target: T5, full length luciferase (Photinus pyralis, UniProt P08659); test: Full length luciferase counter-screen in transiently transfected HEK293 cells; assay type: cell-based
T5 construct: PW164 has no effect on full length luciferase in transiently transfected HEK293 cells; expressed in transfected cells; host or cells: HEK293
T5 sequence (P08659 whole entry, species assumed): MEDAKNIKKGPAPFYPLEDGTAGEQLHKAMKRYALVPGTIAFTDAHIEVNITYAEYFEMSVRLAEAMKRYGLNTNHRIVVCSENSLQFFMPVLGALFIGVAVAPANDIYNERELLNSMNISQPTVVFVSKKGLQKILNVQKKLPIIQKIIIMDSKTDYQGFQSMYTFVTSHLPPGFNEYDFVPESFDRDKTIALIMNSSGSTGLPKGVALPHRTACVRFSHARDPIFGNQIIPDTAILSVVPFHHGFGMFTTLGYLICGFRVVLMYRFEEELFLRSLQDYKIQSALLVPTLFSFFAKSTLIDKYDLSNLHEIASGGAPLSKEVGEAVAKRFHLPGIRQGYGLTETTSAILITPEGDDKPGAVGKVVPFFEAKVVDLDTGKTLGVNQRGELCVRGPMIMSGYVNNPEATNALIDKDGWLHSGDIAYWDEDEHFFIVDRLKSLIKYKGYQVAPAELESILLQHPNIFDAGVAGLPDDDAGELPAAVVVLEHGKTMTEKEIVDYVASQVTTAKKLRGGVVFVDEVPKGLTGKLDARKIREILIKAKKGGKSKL
Text: as §2

[8] = test system: normal mechanical sensitivity; test: Normal mechanical sensitivity, von Frey stimulation of normal skin; conditions: intraplantar injection, 3 ul
Description: as §4, §5

Chain of human cardiac ERG channel (hERG) (Q12809 whole entry, canonical isoform): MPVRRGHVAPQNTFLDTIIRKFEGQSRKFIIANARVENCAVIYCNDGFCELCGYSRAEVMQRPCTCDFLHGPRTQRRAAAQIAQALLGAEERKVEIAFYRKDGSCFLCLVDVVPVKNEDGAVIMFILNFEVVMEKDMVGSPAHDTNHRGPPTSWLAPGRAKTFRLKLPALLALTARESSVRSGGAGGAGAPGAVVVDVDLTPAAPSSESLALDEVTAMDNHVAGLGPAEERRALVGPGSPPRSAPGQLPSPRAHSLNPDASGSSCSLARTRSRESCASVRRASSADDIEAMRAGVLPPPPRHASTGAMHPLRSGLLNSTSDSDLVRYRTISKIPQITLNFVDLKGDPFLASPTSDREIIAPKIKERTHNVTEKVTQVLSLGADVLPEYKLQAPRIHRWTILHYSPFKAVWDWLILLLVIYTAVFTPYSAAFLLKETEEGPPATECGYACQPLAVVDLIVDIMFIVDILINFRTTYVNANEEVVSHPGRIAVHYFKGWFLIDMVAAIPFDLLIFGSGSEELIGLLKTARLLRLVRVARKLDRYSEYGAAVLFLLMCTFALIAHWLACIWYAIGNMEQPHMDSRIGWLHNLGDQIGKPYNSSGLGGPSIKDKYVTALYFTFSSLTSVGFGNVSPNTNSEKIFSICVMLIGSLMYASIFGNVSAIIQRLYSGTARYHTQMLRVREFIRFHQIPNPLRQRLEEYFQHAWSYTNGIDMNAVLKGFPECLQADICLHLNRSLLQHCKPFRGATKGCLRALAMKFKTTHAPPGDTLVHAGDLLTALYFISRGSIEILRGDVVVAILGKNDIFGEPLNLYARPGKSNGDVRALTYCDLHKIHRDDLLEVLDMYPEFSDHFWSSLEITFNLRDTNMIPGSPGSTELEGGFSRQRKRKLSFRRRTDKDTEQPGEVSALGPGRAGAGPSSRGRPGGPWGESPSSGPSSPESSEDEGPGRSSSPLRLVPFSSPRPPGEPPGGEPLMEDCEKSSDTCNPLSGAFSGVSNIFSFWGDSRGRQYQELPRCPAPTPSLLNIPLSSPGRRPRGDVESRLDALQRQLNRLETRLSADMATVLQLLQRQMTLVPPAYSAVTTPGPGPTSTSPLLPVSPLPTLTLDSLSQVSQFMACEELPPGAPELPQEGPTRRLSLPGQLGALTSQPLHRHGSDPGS

## COC(=O)[C@@H](NC(=O)[C@H](CCC(=O)OC(C)(C)C)NC(=O)[C@H](CC(C)C)NC(=O)[C@@H]1CCCN1C(=O)OCc1ccccc1)C(C)C [PW164, Benzyl(S)-2-(((S)-1-(((S)-5-(tert-butoxy)-1-(((S)-1-methoxy-3-methyl-1-oxobutan-2-yl)amino)-1,5-dioxopentan-2-yl)amino)-4-methyl-1-oxopentan-2-yl)carbamoyl) pyrrolidine-1-carboxylate] (Cbz-PLE(OtBu)V-OMe)
[1]
  hERG liability: no hERG and CYP450s liabilities
[2]; intrathecal, 5 ul, 30 min after capsaicin
  Capsaicin-induced mechanical hypersensitivity: does not inhibit
[2]; local injection at capsaicin site
  Duration of effect compared to bupivacaine: longer-lasting effects without completely blocking mechanical sensation
[2]; local injection at capsaicin site, 30 min after capsaicin, 3 ul
  Mechanical hypersensitivity to LVF and HVF von Frey stimulation: dose-dependently inhibits mechanical hypersensitivity
HEK293 cells
  Cytotoxicity (LDH): not toxic
[3]
  Normal mechanical sensation, paw withdrawal response to LVF and HVF: no changes in paw withdrawal response
[4]
  IC50: 17.8 µM
Whole blood stability
  Human whole blood stability: high
FGF13-1b:Nav1.6 channel; 50 μM, HEK-Nav1.6 cells expressing FGF13-1b-GFP
  Availability of FGF13-1b:Nav1.6 channel pool: decreases availability
FGF13-1b:Nav1.6 channel; in the presence of FGF13-1b
  Shift in V1/2 of steady-state inactivation: hyperpolarizing shift
Nav1.6
  Effect on Na+ transient currents: acts as a FGF13-1a mimic on transient Na+ currents
[5]
  Mechanical hypersensitivity to LVF at surgical wound: inhibits the hypersensitivity
[6]; intravenous 10 mg/kg
  Oral bioavailability: moderate
[6]
  Oral half-life: moderate
FGF13-1a:Nav1.6
  Effect on FGF13-1A binding to Nav1.6: does not have a significant effect
[7]
  Human plasma metabolic stability: high
Cytochrome P450
  CYP450s liability: no hERG and CYP450s liabilities
Full length luciferase
  Effect on full length luciferase: no effect

## CCCCN1CCCCC1C(=O)Nc1c(C)cccc1C (stereo not shown) [bupivacaine]
[8]
  Normal mechanical sensation, paw withdrawal response to LVF and HVF: complete sensory block
